Assay results: patent US20240124444A1 (Celgene Corporation, priority 2020, published 2024)
Read-outs that look alike come from different tables or passages of the source.

Tested on: C. parvum strain UGA1
Test: C. parvum growth inhibition assay (Nluc luminescence in HCT-8 cells)
Assay type: cell-based, Cryptosporidium parvum
Details: for inhibition at 1 µM / inhibition at 10 µM / EC50: Cryptosporidium parvum; for inhibition at 1 µM / inhibition at 10 µM: HCT-8; for inhibition at 1 µM: read-out: % inh @ 1 uM C. parvum; for inhibition at 10 µM: read-out: % inh @ 10 uM C. parvum; for EC50: HCT-8, 48 h, C. parvum growth inhibition in HCT-8 cells, 48 hours, 6 concentrations 10-0.04 μM
Protocol: C. parvum GROWTH INHIBITION ASSAYS
C. parvum growth inhibition was performed as described in Hulverson M A, Vinayak S, Choi R, Schaefer D A, Castellanos-Gonzalez A, Vidadala R S R, Brooks C F, Herbert G T, Betzer D P, Whitman G R, Sparks H N, Arnold S L M, Rivas K L, Barrett L K, White A C Jr, Maly D J, Riggs M W, Striepen B, Van Voorhis W C, Ojo K K. Bumped-Kinase Inhibitors for Cryptosporidiosis Therapy. J Infect Dis. 2017 Apr. 15; 215(8):1275-1284.
C. parvum strain UGA1 […] (ATCC, Manassas, VA) were prepared as described below. HCT-8 cells were inoculated onto 96-well plates were grown for 48 hours to 90%-100% confluence. C. parvum oocysts were then incubated for 10 minutes in 10% bleach at room temperature and washed with Dulbecco's phosphate-buffered saline. One thousand oocysts per well were applied to plates with Roswell Park Memorial Institute 1640 (RPMI) medium supplemented with 10% horse serum and 1% penicillin/streptomycin. Compounds of Formula (I), Formula (II), and Formula (III) were added to the plates at different concentrations and the plates were incubated for 48 hours. Following the incubation, the monolayers were lysed for 1 hour before a luciferase reagent was added, and relative luminescence units were determined.
For certain compounds of Formula I, Formula II, and Formula III, EC50 values were calculated using curves calculated from Prism after analysis of C. parvum growth inhibition at 6 different concentrations: 10, 3.33, 1.11, 0.37, 0.12, and 0.04 μM. […] For certain compounds of Formula I, Formula II, and Formula III, single point inhibition values of 0-33% (activity level D), between 33% and 66% (activity level E), and between 67% and 100% (activity level F) are also shown in Table 1 below.

[1] = single point inhibition @ 10 uM
[2] = single point inhibition at 1 uM
[3] = single point inhibition at 10 uM

Cc1cc(-c2cc3cnc(Nc4cccc(-c5nc[nH]n5)c4)cc3[nH]2)cc(N)n1 [Example 150, N-(3-(1H-1,2,4-triazol-3-yl)phenyl)-2-(2-amino-6-methylpyridin-4-yl)-1H-pyrrolo[3,2-c]pyridin-6-amine]
inhibition at 1 µM (single point inhibition @ 1 uM): 0 to 33% | inhibition at 10 µM [1]: 67 to 100%

Cn1cc(C(=O)Nc2cc3c(cn2)cc(C#N)n3C)cn1 [Example 279, N-(2-cyano-1-methyl-1H-pyrrolo[3,2-c]pyridin-6-yl)-1-methyl-1H-pyrazole-4-carboxamide]
inhibition at 1 µM [2]: 0 to 33% | inhibition at 10 µM [3]: 0 to 33%

CN(CC(F)(F)F)c1cc(-c2cc3cnc(NC4CCOCC4)cc3[nH]2)ncn1 [Example 394, 2-(6-(methyl(2,2,2-trifluoroethyl)amino)pyrimidin-4-yl)-N-(tetrahydro-2H-pyran-4-yl)-1H-pyrrolo[3,2-c]pyridin-6-amine]
EC50: > 1 µM

Cc1cc(-c2cc3cnc(NCC4CC4)cc3[nH]2)ccn1 [Example 67, N-(cyclopropylmethyl)-2-(2-methylpyridin-4-yl)-1H-pyrrolo[3,2-c]pyridin-6-amine]
EC50: > 1 µM

Cc1cc(-c2cc3cnc(N)cc3n2C)ncn1 [Example 125, 1-methyl-2-(6-methylpyrimidin-4-y)-1H-pyrrolo[3,2-c]pyridin-6-amine]
EC50: > 1 µM

CCOc1nccc(-c2cc3cnc(NC(=O)C4C5CCCC54)cc3[nH]2)n1 (stereo not drawn) [Example 58, N-(2-(2-ethoxypyrimidin-4-yl)-1H-pyrrolo[3,2-c]pyridin-6-yl)bicyclo[3.1.0]hexane-6-carboxamide]
EC50: > 1 µM | inhibition at 1 µM (single point inhibition @ 1 uM): 0 to 33% | inhibition at 10 µM [1]: 67 to 100%

CC(C)n1c(-c2ccnc(NCC(F)(F)F)n2)cc2cnc(NC(=O)c3cnn(C)c3)cc21 [Example 338, N-(1-isopropyl-2-(2-(2,2,2-trifluoroethylamino)pyrimidin-4-yl)-1H-pyrrolo[3,2-c]pyridin-6-yl)-1-methyl-1H-pyrazole-4-carboxamide]
inhibition at 1 µM [2]: 0 to 33% | inhibition at 10 µM [3]: 0 to 33%

COc1cc(Nc2cc3[nH]c(-c4ccncc4)cc3cn2)cc(-n2cncn2)c1 [Example 140, N-(3-methoxy-5-(1H-1,2,4-triazol-1-yl)phenyl)-2-(pyridin-4-yl)-1H-pyrrolo[3,2-c]pyridin-6-amine]
inhibition at 1 µM (single point inhibition @ 1 uM): 0 to 33% | inhibition at 10 µM [1]: 67 to 100%

Cn1cc(C(=O)Nc2cc3[nH]c(-c4cc(C(F)(F)F)ncn4)cc3cn2)cn1 [Example 254, 1-methyl-N-(2-(6-(trifluoromethyl)pyrimidin-4-yl)-1H-pyrrolo[3,2-c]pyridin-6-yl)-1H-pyrazole-4-carboxamide]
inhibition at 1 µM [2]: 0 to 33% | inhibition at 10 µM [3]: 0 to 33%

Cn1c(-c2ccnc(NCC(F)(F)F)n2)cc2cnc(NC3CCCOC3)cc21 (stereo in doubt) [Example 386, (R)-1-methyl-N-(tetrahydro-2H-pyran-3-yl)-2-(2-(2,2,2-trifluoroethyl)amino)pyrimidin-4-yl)-1H-pyrrolo[3,2-c]pyridin-6-amine]
EC50: > 1 µM

CC(C)Nc1cc2c(cn1)cc(-c1ccnc(NCC(F)(F)F)n1)n2C [Example 383, N-isopropyl-1-methyl-2-(2-(2,2,2-trifluoroethylamino)pyrimidin-4-yl)-1H-pyrrolo[3,2-c]pyridin-6-amine]
EC50: > 1 µM

Cc1c[nH]c2cc(NC(=O)C3CC3)ncc12 [Example 115, N-(3-methyl-1H-pyrrolo[3,2-c]pyridin-6-yl)cyclopropanecarboxamide]
EC50: > 1 µM

Cn1cc(C(=O)Nc2cc3[nH]c(-c4ccnc(O[C@H]5CC[C@@H](O)CC5)n4)cc3cn2)cn1 [Example 325, N-(2-(2-((1s,4s)-4-hydroxycyclohexyloxy)pyrimidin-4-yl)-1H-pyrrolo[3,2-c]pyridin-6-yl)-1-methyl-1H-pyrazole-4-carboxamide]
% inh @ 1 uM C. parvum [2]: D (single point inhibition values of 0-33% (activity level D)) | % inh @ 10 uM C. parvum [3]: D (single point inhibition values of 0-33% (activity level D))

Cn1cc(-c2cc3cnc(NC(=O)C4CC4)cc3n2C)cn1 [Example 102, N-(1-methyl-2-(1-methyl-1H-pyrazol-4-yl)-1H-pyrrolo[3,2-c]pyridin-6-yl)cyclopropanecarboxamide]
EC50: > 1 µM

O=C(Nc1cc2[nH]c(-c3ccncc3)cc2cn1)C1CCOCC1 [Example 68, N-(2-(pyridin-4-yl)-1H-pyrrolo[3,2-c]pyridin-6-yl)tetrahydro-2H-pyran-4-carboxamide]
EC50: > 1 µM | inhibition at 1 µM (single point inhibition @ 1 uM): 0 to 33% | inhibition at 10 µM [1]: 67 to 100%

Cn1cc(-c2cc3cnc(Nc4ccc(F)cc4)cc3n2C)cn1 [Example 235, N-(4-fluorophenyl)-1-methyl-2-(1-methyl-1H-pyrazol-4-yl)-1H-pyrrolo[3,2-c]pyridin-6-amine]
inhibition at 1 µM [2]: 0 to 33% | inhibition at 10 µM [3]: 33 to 66%

Cn1c(-c2ccnc(NCC(F)(F)F)n2)cc2cnc(NC3CCOCC3)cc21 [Example 358, 1-methyl-N-(tetrahydro-2H-pyran-4-yl)-2-(2-(2,2,2-trifluoroethylamino)pyrimidin-4-yl)-1H-pyrrolo[3,2-c]pyridin-6-amine]
EC50: < 0.5 µM

Cc1cc(-c2cc3cnc(NC(=O)C4CC4)cc3n2CCO)ncn1 [Example 55, N-(1-(2-hydroxyethyl)-2-(6-methylpyrimidin-4-yl)-1H-pyrrolo[3,2-c]pyridin-6-yl)cyclopropanecarboxamide]
EC50: > 1 µM

Cc1cc(-c2cc3cnc(NC4COC4)cc3[nH]2)ccn1 [Example 113, 2-(2-methylpyridin-4-yl)-N-(oxetan-3-yl)-1H-pyrrolo[3,2-c]pyridin-6-amine]
EC50: > 1 µM

c1ncc(-c2cc3cnc(Nc4cnn(C5CCOCC5)c4)cc3[nH]2)o1 [Example 147, 2-(oxazol-5-yl)-N-(1-(tetrahydro-2H-pyran-4-yl)-1H-pyrazol-4-yl)-1H-pyrrolo[3,2-c]pyridin-6-amine]
inhibition at 1 µM (single point inhibition @ 1 uM): 0 to 33% | inhibition at 10 µM [1]: 67 to 100%

COc1nccc(-c2cc3cnc(NC(=O)c4cccc5c4cnn5C)cc3[nH]2)n1 [Example 220, N-(2-(2-methoxypyrimidin-4-yl)-1H-pyrrolo[3,2-c]pyridin-6-yl)-1-methyl-1H-indazole-4-carboxamide]
inhibition at 1 µM [2]: 0 to 33% | inhibition at 10 µM [3]: 33 to 66%

Cc1cc(-c2cc3cnc(NC(=O)C4CC4)cc3n2C)ccn1 [Example 83, N-(1-methyl-2-(2-methylpyridin-4-yl)-1H-pyrrolo[3,2-c]pyridin-6-yl)cyclopropanecarboxamide]
EC50: > 1 µM | inhibition at 1 µM (single point inhibition @ 1 uM): 0 to 33% | inhibition at 10 µM [1]: 0 to 33%

CC(C)c1cc(-c2cc3cnc(NC4CCOCC4)cc3n2C)ncn1 [Example 395, 2-(6-isopropylpyrimidin-4-yl)-1-methyl-N-(tetrahydro-2H-pyran-4-yl)-1H-pyrrolo[3,2-c]pyridin-6-amine]
EC50: > 1 µM

CC(C)n1cc(-c2cc3cnc(NC4CCOCC4)cc3n2C)cn1 [Example 241, 2-(1-isopropyl-1H-pyrazol-4-yl)-1-methyl-N-(tetrahydro-2H-pyran-4-yl)-1H-pyrrolo[3,2-c]pyridin-6-amine]
inhibition at 1 µM [2]: 33 to 66% | inhibition at 10 µM [3]: 0 to 33%

O=C(CC1CCCC1)Nc1cc2[nH]c(-c3ccncc3)cc2cn1 [Example 207, 2-cyclopentyl-N-(2-(pyridin-4-yl)-1H-pyrrolo[3,2-c]pyridin-6-yl)acetamide]
inhibition at 1 µM [2]: 0 to 33% | inhibition at 10 µM [3]: 67 to 100%
